Assay results: US12077503B2, “Substituted cyclic amides and their use as herbicides” (FMC CORPORATION, priority 2015, dated 2024)

Columns and labels:
Assay type in all cases: in vivo
[1] = test system: barnyardgrass (Echinochloa crus-galli); assay: Test B flooded paddy test; conditions: Echinochloa crus-galli, 250 g ai/ha, Flood; 0 to 100 scale where 0 is no effect and 100 is complete control; read-out: Barnyardgrass plant response rating
How it was run: (§1)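 Plants at 2-leaf stage flooded to 3 cm above soil, with compounds applied directly to paddy water and that depth maintained. Plants kept in greenhouse 13–15 d. Visual rating versus controls on a 0 (no effect) to 100 (complete control) scale.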

rice (Oryra sativa) = assay: Test B flooded paddy test; conditions: Oryza sativa, 250 g ai/ha, Flood; 0 to 100 scale where 0 is no effect and 100 is complete control; read-out: Rice plant response rating
How it was run: as §1

[2] = test system: ducksalad (Heteranthera limosa); assay: Test B flooded paddy test; conditions: Heteranthera limosa, 250 g ai/ha, Flood; 0 to 100 scale where 0 is no effect and 100 is complete control; read-out: Ducksalad plant response rating
How it was run: as §1

[3] = test system: sedge, umbrella (small-flower umbrella sedge, Cyperus difformis); assay: Test B flooded paddy test; conditions: Cyperus difformis, 250 g ai/ha, Flood; 0 to 100 scale where 0 is no effect and 100 is complete control; read-out: Sedge, Umbrella plant response rating
How it was run: as §1

[4] = test system: wheat (Triticum aestivum); assay: Test A postemergence; conditions: Triticum aestivum, post-emergence, 240 h, postemergence; for plant injury at 125 g/ha: 125 g ai/ha, visual injury vs untreated controls after approx. 10 d, 0 = no effect, 100 = complete control, read-out: Wheat plant response rating (0 to 100 scale); for plant injury at 500 g/ha: 500 g ai/ha, 0 to 100 scale, 0 is no effect, 100 is complete control, read-out: Wheat plant response rating
How it was run: (§2)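 Compounds were formulated in a non-phytotoxic solvent mixture with surfactant and applied as a preemergence directed soil spray after seeding, or sprayed postemergence over plants 2 to 10 cm tall at the one- to two-leaf stage. Evaluation after about 10 d compared treated with untreated controls, using a scale from 0 (no effect) to 100 (complete control).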

[5] = test system: Galium (catchweed bedstraw, Galium aparine); assay: Test A postemergence; conditions: Galium, post-emergence, 240 h, postemergence; for pest or weed control at 125 g/ha: 125 g ai/ha, visual injury vs untreated controls after approx. 10 d, 0 = no effect, 100 = complete control, read-out: Galium plant response rating (0 to 100 scale); for pest or weed control at 500 g/ha: 500 g ai/ha, 0 to 100 scale, 0 is no effect, 100 is complete control, read-out: Galium plant response rating
How it was run: as §2

[6] = test system: ragweed (common ragweed, Ambrosia elatior); assay: Test A postemergence; conditions: Ambrosia artemisiifolia, post-emergence, 240 h, postemergence; for pest or weed control at 125 g/ha: 125 g ai/ha, visual injury vs untreated controls after approx. 10 d, 0 = no effect, 100 = complete control, read-out: Ragweed plant response rating (0 to 100 scale); for pest or weed control at 500 g/ha: 500 g ai/ha, 0 to 100 scale, 0 is no effect, 100 is complete control, read-out: Ragweed plant response rating
How it was run: as §2

Kochia (Kochia scoparia) = assay: Test A postemergence; conditions: Bassia scoparia, post-emergence, 240 h, postemergence; for pest or weed control at 125 g/ha: 125 g ai/ha, visual injury vs untreated controls after approx. 10 d, 0 = no effect, 100 = complete control, read-out: Kochia plant response rating (0 to 100 scale); for pest or weed control at 500 g/ha: 500 g ai/ha, 0 to 100 scale, 0 is no effect, 100 is complete control, read-out: Kochia plant response rating
How it was run: as §2

corn (Zea mays) = assay: Test A postemergence; conditions: Zea mays, post-emergence, 240 h, postemergence; for plant injury at 125 g/ha: 125 g ai/ha, visual injury vs untreated controls after approx. 10 d, 0 = no effect, 100 = complete control, read-out: Corn plant response rating (0 to 100 scale); for plant injury at 500 g/ha: 500 g ai/ha, 0 to 100 scale, 0 is no effect, 100 is complete control, read-out: Corn plant response rating
How it was run: as §2

[7] = test system: pigweed (Amaranthus retroflexus); assay: Test A postemergence; conditions: Amaranthus retroflexus, post-emergence, 240 h, postemergence; for pest or weed control at 125 g/ha: 125 g ai/ha, visual injury vs untreated controls after approx. 10 d, 0 = no effect, 100 = complete control, read-out: Pigweed plant response rating (0 to 100 scale); for pest or weed control at 500 g/ha: 500 g ai/ha, 0 to 100 scale, 0 is no effect, 100 is complete control, read-out: Pigweed plant response rating
How it was run: as §2

[8] = test system: giant foxtail (Setaria faberii); assay: Test A postemergence; conditions: Setaria faberi, post-emergence, 240 h, postemergence; for pest or weed control at 125 g/ha: 125 g ai/ha, visual injury vs untreated controls after approx. 10 d, 0 = no effect, 100 = complete control, read-out: Foxtail, Giant plant response rating (0 to 100 scale); for pest or weed control at 500 g/ha: 500 g ai/ha, 0 to 100 scale, 0 is no effect, 100 is complete control, read-out: Foxtail, Giant plant response rating
How it was run: as §2

[9] = test system: barnyardgrass (Echinochloa crus-galli); assay: Test A postemergence; conditions: Echinochloa crus-galli, post-emergence, 240 h, postemergence; for pest or weed control at 125 g/ha: 125 g ai/ha, visual injury vs untreated controls after approx. 10 d, 0 = no effect, 100 = complete control, read-out: Barnyardgrass plant response rating (0 to 100 scale); for pest or weed control at 500 g/ha: 500 g ai/ha, 0 to 100 scale, 0 is no effect, 100 is complete control, read-out: Barnyardgrass plant response rating
How it was run: as §2

[10] = test system: blackgrass (Alopecurus myosuroides); assay: Test A postemergence; conditions: Alopecurus myosuroides, post-emergence, 240 h, postemergence; for pest or weed control at 125 g/ha: 125 g ai/ha, visual injury vs untreated controls after approx. 10 d, 0 = no effect, 100 = complete control, read-out: Blackgrass plant response rating (0 to 100 scale); for pest or weed control at 500 g/ha: 500 g ai/ha, 0 to 100 scale, 0 is no effect, 100 is complete control, read-out: Blackgrass plant response rating
How it was run: as §2

[11] = test system: ryegrass, Italian (Italian ryegrass, Lolium multiflorum); assay: Test A postemergence; conditions: Lolium multiflorum, post-emergence, 240 h, postemergence; for pest or weed control at 125 g/ha: 125 g ai/ha, visual injury vs untreated controls after approx. 10 d, 0 = no effect, 100 = complete control, read-out: Ryegrass, Italian plant response rating (0 to 100 scale); for pest or weed control at 500 g/ha: 500 g ai/ha, 0 to 100 scale, 0 is no effect, 100 is complete control, read-out: Ryegrass, Italian plant response rating
How it was run: as §2

Compound	pest or weed control at 250 g/ha [1] [%]	pest or weed control at 250 g/ha (rice (Oryra sativa)) [%]	pest or weed control at 250 g/ha [2] [%]	pest or weed control at 250 g/ha [3] [%]	plant injury at 125 g/ha [4] [%]	plant injury at 500 g/ha [4] [%]	pest or weed control at 125 g/ha [5] [%]	pest or weed control at 500 g/ha [5] [%]	pest or weed control at 125 g/ha [6] [%]	pest or weed control at 500 g/ha [6] [%]	pest or weed control at 125 g/ha (Kochia (Kochia scoparia)) [%]	pest or weed control at 500 g/ha (Kochia (Kochia scoparia)) [%]	plant injury at 125 g/ha (corn (Zea mays)) [%]	plant injury at 500 g/ha (corn (Zea mays)) [%]	pest or weed control at 125 g/ha [7] [%]	pest or weed control at 500 g/ha [7] [%]	pest or weed control at 125 g/ha [8] [%]	pest or weed control at 500 g/ha [8] [%]	pest or weed control at 125 g/ha [9] [%]	pest or weed control at 500 g/ha [9] [%]	also measured
N#Cc1cc([C@H]2CNC(=O)[C@]2(O)C(=O)Nc2ccccc2F)ccc1F [Compound 1200]	0	0	0	0	0	0	0	0	0	0	0	0	0	0	0	0	0	0	0	0	pest or weed control at 125 g/ha [10]: 0%; pest or weed control at 500 g/ha [10]: 0%; pest or weed control at 125 g/ha [11]: 0%; pest or weed control at 500 g/ha [11]: 0%
CSc1ccccc1NC(=O)[C@H]1C(=O)NC[C@@H]1c1ccc(F)c(C#N)c1 [Compound 1201]	0	0	50	0	0	0	30	50	0	30	40	70	0	0	20	60	70	90	70	100	pest or weed control at 125 g/ha [10]: 0%; pest or weed control at 500 g/ha [10]: 0%; pest or weed control at 125 g/ha [11]: 0%; pest or weed control at 500 g/ha [11]: 0%
COc1cc(C(F)(F)F)ccc1[C@H]1CN(C)C(=O)[C@@H]1C(=O)Nc1cccc(F)c1C [Compound 1205]	40	20	100	0	30	40	20	40	0	0	0	0	70	80	0	0	80	80	40	50	pest or weed control at 125 g/ha [10]: 0%; pest or weed control at 500 g/ha [10]: 20%; pest or weed control at 125 g/ha [11]: 0%; pest or weed control at 500 g/ha [11]: 30%
Cc1c(F)cccc1NC(=O)[C@H]1C(=O)N(C)C[C@@H]1c1ccc(F)c(Br)c1 [Compound 1211]	85	60	100	0	30	60	50	60	0	0	0	30	80	90	30	30	80	80	100	100	pest or weed control at 125 g/ha [10]: 30%; pest or weed control at 500 g/ha [10]: 40%; pest or weed control at 125 g/ha [11]: 0%; pest or weed control at 500 g/ha [11]: 70%
